Read-outs that look alike come from different tables or passages of the source.

In one test the target is CSF-1R (Homo sapiens, UniProt P07333). Put plainly: CSF-1R in vitro biochemical kinase study (ADP-Glo assay). To be noted: 500 μM ATP, * = average of multiple tests, read-out: Enzymatic experiment CSF1R IC50. How it is done: A. CSF-1R In Vitro Biochemical Kinase Study
In the present invention, the inhibitory activity of compounds against the CSF-1R activity was determined by using CSF-1R ADP-Glo assay. The compound-mediated inhibition effect was achieved by inhibiting the production of ADP from consumption of ATP, and the activities of compounds were evaluated by using the ADP-Glo kit (Promega, cat. No. V9101). The specific experimental process was as follows:
1. The kinase reaction performed in the present invention was carried out in a 384-well plate (Perkinelmer, cat. No. 6007290), 3.95 nM of CSF-1R, 500 μM of ATP, and 0.2 mg/mL of polypeptide (Poly (Glu4, Try1), Sigma, cat. No. P0275) were respectively weighed and added to each well:
2. following reagents were then added to each well to reach the final reaction system: 40 mM Tris, pH 7.5, 20 mM MgCl2, 0.01% Triton X-100, 0.1 mg/mL BSA, 2.5 mM DTT, and 0.1% DMSO;
3. the reaction was conducted at 30° C. for 60 min;
4. then an equal volume of stop solution (ADP-Glo) was added to the kinase reaction system;
5. the mixed solution was incubated at 25° C. for 60 min, and the kinase reaction was then terminated;
6. a two-fold volume of detection reagent was then added to each well;
7. the mixed solution was incubated at 25° C. for 30 min;
8. the compound IC50 value was measured by using a plate reader (Tecan, M1000) and a four-parameter curve was generated in Graphpad Prism.

Test [1] relates to M-NFS-60 mouse myeloid leukemia lymphocytes. Briefly: CSF-1R-related cell proliferation experiment (Cell Titer Glo), M-NFS-60 cells with M-CSF. The format is cell-based. To be noted: Lymphocyte, 72 h, 3 days, CTG, * = average of multiple tests. How it is done:
C. CSF-1R-Related Cell Proliferation Experiment
Functional effects of compounds on cell proliferation were evaluated by using Cell Titer Glo (CTG) study in the present invention. M-NFS-60 mouse myeloid leukemia lymphocytes (cat. No. CCBJ078) from National Institutes For Food and Drug Control were cultured in the incubator under conditions of RPMI 1640 (Gibco, cat. No. 11875-119), 10% fetal bovine serum (Gibco, 10099-141), human 10 ng/mL M-CSF macrophage colony-stimulating factor (R&D, cat. No. MVN0915101), 37° C., and 5% CO2. Since ATP is an index for viable cell metabolism, CTG (Promega, #G7573) reagent is a homogeneous detection method for detecting the number of viable cells in the culture by quantifying ATP. Therefore, compound-mediated inhibition for cell proliferation/survival was evaluated by quantifying ATP content in cells, and the specific experimental process was as follows:
1. The cells were plated into a tissue-culture-medium-treated 96-well plate (Costar #3904) with 5,000 cells/well/80 μL fresh culture medium;
2. 24 hours later, 10 μL culture medium containing testing compound with 10-fold of final concentration was added to each well;
3. 10 μL of culture medium containing M-CSF with 10-fold of the final concentration was then added to each well;
4. dosage effect was evaluated by testing the 3-fold serial dilutions of the compound;
(§1) 5. after the cells were incubated for 3 days at 37° C. and 5% CO2, the inhibition on cell survival was quantified after 50 μL of CTG was added and the luminescence assay was performed;
(§2) 6. the compound concentration leading to half maximal inhibitory (IC50) and the compound concentration leading to absolute half maximal inhibitory (Absolute IC50) were measured by a plate reader (M1000, Tecan) and a four-parameter curve fit in Graphpad Prism 7.
For orientation: In ATP-based viability assays light output follows the ATP content of the culture.

For test [2], the system named is M-07e human cytomegalic leukemia cells. Briefly: Cell proliferation (Cell Titer Glo), M-07e cells with SCF (KIT). The format is cell-based. The following applies: 72 h, 3 days, CTG, * = average of multiple tests, read-out: Cytological experiment KIT IC50. On the procedure: (§3) D. CSF-1R-Related Cell Proliferation Experiment
(§4) Functional effects of compounds on the proliferation of several cell lines were evaluated by Cell Titer Glo (CTG) studies in the present invention, and effects of the compounds on the proliferation of different cells were evaluated to determine the selectivity degree of the compounds. In the experiment, M-07e human cytomegalic leukemia cells (cat. No. CBP60791) from Nanjing Kebai Biotechnology Co., Ltd. were cultured in an incubator under conditions of RPMI1640 (Gibco, cat. No. 11875-119), 20% fetal bovine serum (Gibco, 10099-141), human 10 ng/mL GM-CSF granulocyte macrophage colony-stimulating factors (R&D, cat. No. 215-GM-010), 37° C., and 5% CO2; and Kasumi-1 human acute myeloblastic leukemia cells (cat. No. CBP60524) were cultured in an incubator under conditions of RPMI1640 (Gibco, cat. No. 11875-119), 20% fetal bovine serum (Gibco, 10099-141), 37° C., and 5% CO2: NCI-H1703 human non-small cell lung squamous carcinoma cells (cat. No. CBP60115) were cultured in an incubator under conditions of RPMI1640 (Gibco, cat. No. 11875-119), 10% fetal bovine serum (Gibco, 10099-141), 37° C., and 5% CO2; MV-4-11 human acute monocytic leukemia cells (cat. No. CBP60522) were cultured in an incubator under conditions of IMDM (Invitrogen, cat. No. 12440053), 20% fetal bovine serum (Gibco, 10099-141), 37° C., and 5% CO2. Since ATP is an index for viable cell metabolism, CTG (Promega, #G7573) reagent is a homogeneous detection method for detecting the number of viable cells in the culture by quantifying ATP. Therefore, compound-mediated inhibition for cell proliferation/survival was evaluated by quantifying ATP content in cells, and the specific experimental process was as follows.
I) M-07e Human Cytomegalic Leukemia Cell:
1. The cells were plated into a tissue-culture-medium-treated 96-well plate (Costar #3904) with 3500 cells/well/80 μL fresh culture medium, and cultured for 24 hrs;
(§5) 2. the next day, 10 μL of culture medium containing testing compound with 10-fold of final concentration was added to each well:
3. 10 μL of culture medium containing SCF recombinant human stem cell factor (R&D, cat. No. 7466-SC-010) with 10-fold of the final concentration was then added to each well;
4. the dosage effect was evaluated by testing 4-fold serial dilutions of the compound, which started from 18 μM;
as §1, §2

Test [3] has as its system NCI-H1703 human non-small cell lung squamous carcinoma cells. Briefly: Cell proliferation (Cell Titer Glo), NCI-H1703 cells (PDGFRA). The format is cell-based. The following applies: 72 h, 3 days, CTG, * = average of multiple tests, read-out: Cytological experiment PDGFRA IC50. On the procedure: as §3, §4
II) NCI-H1703 Human Non-Small Cell Lung Squamous Carcinoma Cell
1. The cells were inoculated into a tissue-culture-medium-treated 96-well plate (Costar #3904) with 5000 cells/well/90 μL fresh culture medium, and cultured for 24 hrs;
as §5
(§6) 3. the dosage effect was evaluated by testing 3-fold serial dilutions of the compound, which started from 18 μM;
4. after the cells were incubated for 3 days at 37° C. and 5% CO2, the inhibition on cell survival was quantified after 50 μL of CTG was added and the luminescence assay was performed:
(§7) 5. the compound concentration leading to half maximal inhibitory (IC50) and the compound concentration leading to absolute half maximal inhibitory (Absolute IC50) were measured by a plate reader (M1000, Tecan) and a four-parameter curve fit in Graphpad Prism 7.

In test [4] the test system is MV-4-11 human acute monocytic leukemia cells. Briefly: Cell proliferation (Cell Titer Glo), MV-4-11 cells (FLT3). To be noted: MV4-11, 72 h, 3 days, CTG, * = average of multiple tests, read-out: Cytological experiment FLT3 IC50. The format is cell-based. How it is done: as §3, §4
III) MV-4-11 Human Acute Monocytic Leukemia Cell
1. The cells were inoculated into a tissue-culture-medium-treated 96-well plate (Costar #3904) with 5000 cells/well/90 μL fresh culture medium, and cultured for 24 hrs:
2. the next day, 10 μL of culture medium containing testing compound with 10-fold of final concentration was added to each well;
as §6
4. after the cells were incubated for 3 days at 37° C. and 5% CO2, the inhibition on cell survival was quantified after 50 μL of CTG was added and the luminescence assay was performed;
as §7

The mark [5] stands for this setting: read-out: Cytological experiment CSF1R IC50.
Where [6] appears, read: absolute half maximal inhibition, read-out: Cytological experiment CSF-1R Absolute IC50.

Sequence of CSF-1R (P07333 20-972): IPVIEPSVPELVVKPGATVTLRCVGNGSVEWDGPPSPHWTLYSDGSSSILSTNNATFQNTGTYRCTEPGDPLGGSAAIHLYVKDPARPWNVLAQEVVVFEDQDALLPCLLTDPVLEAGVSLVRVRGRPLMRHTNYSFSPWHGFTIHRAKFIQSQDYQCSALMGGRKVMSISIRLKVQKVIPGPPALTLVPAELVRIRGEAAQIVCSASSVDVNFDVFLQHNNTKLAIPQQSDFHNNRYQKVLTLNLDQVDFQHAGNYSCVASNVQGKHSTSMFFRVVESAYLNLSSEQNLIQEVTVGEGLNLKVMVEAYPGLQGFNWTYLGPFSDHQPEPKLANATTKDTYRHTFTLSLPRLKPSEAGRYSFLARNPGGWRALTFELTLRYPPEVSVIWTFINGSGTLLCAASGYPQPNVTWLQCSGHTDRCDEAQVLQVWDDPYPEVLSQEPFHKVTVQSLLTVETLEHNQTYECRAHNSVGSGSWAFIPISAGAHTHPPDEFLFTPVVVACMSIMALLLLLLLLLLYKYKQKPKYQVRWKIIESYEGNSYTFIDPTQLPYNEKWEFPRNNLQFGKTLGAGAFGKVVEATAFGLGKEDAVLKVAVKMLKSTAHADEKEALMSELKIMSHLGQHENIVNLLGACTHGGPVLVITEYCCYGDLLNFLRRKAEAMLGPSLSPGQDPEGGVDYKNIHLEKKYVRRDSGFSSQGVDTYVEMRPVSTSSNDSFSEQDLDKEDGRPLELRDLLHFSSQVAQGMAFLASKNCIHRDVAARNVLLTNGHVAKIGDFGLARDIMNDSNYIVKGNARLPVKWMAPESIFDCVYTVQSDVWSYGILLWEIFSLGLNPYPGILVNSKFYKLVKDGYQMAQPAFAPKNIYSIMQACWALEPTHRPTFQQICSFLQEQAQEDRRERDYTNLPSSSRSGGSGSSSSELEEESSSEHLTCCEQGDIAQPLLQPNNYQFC

The term IC50 denotes the concentration at which inhibition is half-maximal. `CCn1cc(-c2cc(Oc3ccc(-c4cnc5n(c4=O)CCCN5C)nc3C)ccn2)cn1` [Example 8]: the IC50 is 77.7 nM at CSF-1R, 151 nM in test [1] (setting [5]) and 361 nM in test [1] (setting [6]).

`CCCN1CCCn2c1ncc(-c1ccc(Oc3ccnc(-c4cnn(C)c4)c3)c(C)n1)c2=O` [Example 11, 3-(6-methyl-5-((2-(1-methyl-1H-pyrazol-4-yl)pyridin-4-yl)oxy)pyridin-2-yl)-9-propyl-6,7,8,9-tetrahydro-4H-pyrimido [1,2-a]pyrimidin-4-one]: the IC50 on CSF-1R was 319 nM; in test [2], more than 2000 nM; in test [3] it was more than 6000 nM; in test [1] (setting [5]) it was 222 nM; in test [1] (setting [6]) it was 273 nM; in test [4], more than 6000 nM.

Regarding `Cc1nc(-c2cnc3n(c2=O)CC[C@@H](C)N3)ccc1Oc1ccnc(-c2cnn(C)c2)c1` [Example 6, (R)-8-methyl-3-(6-methyl-5-((2-(1-methyl-1H-pyrazol-4-yl)pyridin-4-yl)oxy)pyridin-2-yl)-6,7,8,9-tetrahydro-4H-pyrimido[1,2-a]pyrimidin-4-one], the IC50 on CSF-1R was 296 nM; in test [1] (setting [5]), more than 2000 nM; in test [1] (setting [6]), 710 nM.

On to `Cc1nc(-c2cnc3n(c2=O)CCCN3C)ccc1Oc1ccnc(-c2cn[nH]c2)c1` [Example 7, 3-(5-((2-(1H-pyrazol-4-yl)pyridin-4-yl)oxy)-6-methylpyridin-2-yl)-9-methyl-6,7,8,9-tetrahydro-4H-pyrimido[1,2-a] pyrimidin-4-one], for which the IC50 is 84.2 nM on CSF-1R; more than 1120 nM in test [2]; more than 2000 nM in test [3]; 498 nM in test [1] (setting [5]); 488 nM in test [1] (setting [6]); more than 18000 nM in test [4].

Consider `Cc1nc(-c2cnc3n(c2=O)CC[C@@H]2CCCN32)ccc1Oc1ccnc(-c2cnn(C)c2)c1` [Example 12], for which the IC50 was 107 nM on CSF-1R; 755 nM in test [2]; more than 2000 nM in test [3]; 85.2 nM in test [1] (setting [5]); 77.8 nM in test [1] (setting [6]); more than 18000 nM in test [4].

For the compound `Cc1nc(-c2cnc3n(c2=O)CCN3C)ccc1Oc1ccnc(-c2cnn(C)c2)c1` [Example 3, 1-methyl-6-(6-methyl-5-((2-(1-methyl-1H-pyrazol-4-yl)pyridin-4-yl)oxy)pyridin-2-yl)-2,3-dihydroimidazo[1,2-a]pyrimidin-5(1H)-one], the IC50 on CSF-1R was found to be 157 nM; in test [1] (setting [5]), 249 nM; in test [1] (setting [6]) it was 185 nM.

Consider `Cc1nc(-c2cnc3n(c2=O)CCCN3C2CCC2)ccc1Oc1ccnc(-c2cnn(C)c2)c1` [Example 9, 9-cyclobutyl-3-(6-methyl-5-((2-(1-methyl-1H-pyrazol-4-yl)pyridin-4-yl)oxy)pyridin-2-yl)-6,7,8,9-tetrahydro-4H-pyrimido[1,2-a]pyrimidin-4-one], for which the IC50 on CSF-1R was 68.3 nM; in test [2], 321 nM; in test [3], 1580 nM; in test [1] (setting [5]) it was 64.8 nM; in test [1] (setting [6]), 58.9 nM; in test [4], 2000 nM.

Turning to `Cc1nc(-c2cnc3n(c2=O)CCC(C)N3C)ccc1Oc1ccnc(-c2cnn(C)c2)c1` (stereo not drawn) [Example 10, 8,9-dimethyl-3-(6-methyl-5-((2-(1-methyl-1H-pyrazol-4-yl)pyridin-4-yl)oxy)pyridin-2-yl)-6,7,8,9-tetrahydro-4H-pyrimido[1,2-a]pyrimidin-4-one], the IC50 on CSF-1R was 108 nM; in test [2], more than 18000 nM; in test [3], more than 18000 nM; in test [1] (setting [5]), 134 nM; in test [1] (setting [6]), 124 nM; in test [4], more than 18000 nM.

These data come from patent US11130762B2, “Azaaryl derivative, preparation method therefor, and application thereof for use in pharmacy” (Abbisko Therapeutics Co., Ltd., priority 2017, dated 2021).
